Assay results taken from US20080058269A1, “Insulin Releasing Peptides” (priority 2003, published 2008).
Read-outs that look alike come from different tables or passages of the source.

Experiments:
[1] = system: BRIN-BD11 cells; format: cell-based, rat; settings: for Insulin secretion (ng/10^6 cells/20 min), Control: addition alone without peptide: verapamil 50 μM or KCl 30 mM; for Insulin-releasing action in the presence of verapamil (in words): 50 μM verapamil, calcium channel blocker; for Insulin-releasing action in cells depolarised with KCl (in words): 30 mM KCl; for Insulin secretion (ng/10^6 cells/20 min): 8 observations
Description: (§1) Culture of insulin-secreting cells: Clonal rat insulin-secreting BRIN-BD11 cells were cultured in RPMI-1640 tissue culture medium containing 10% (v/v) fetal calf serum, 1% (v/v) antibiotics (100 U/ml penicillin, 0.1 mg/ml streptomycin) and 11.1 mM glucose. The production and characterisation of BRIN-BD11 cells are described elsewhere. Cells were maintained in sterile tissue culture flasks (Corning, Glass Works, UK) at 37° C. in an atmosphere of 5% CO2 and 95% air using LEEC incubator (Laboratory Technical Engineering, Nottingham, UK). In three experimental series using purified peptides from Agalychnis calcarifer, Bombina variegata and Rana saharica cells were cultured overnight with 25 μM forskolin, 10 nM PMA or 0.1 μg/ml pertussis toxin prior to acute tests.
Acute insulin release studies: Insulin release from BRIN-BD11 cells was determined using cell monolayers [McClenaghan N H, Barnett C R, Ah-Sing E, Abdel-Wahab Y H, O'Harte F P, Yoon T W, Swanston-Flatt S K and Flatt P R 1996 Characterization of a novel glucose-responsive insulin-secreting cell line, BRIN-BD11, produced by electrofusion. Diabetes 45 1132-1140]. The cells were harvested with the aid of trypsin/EDTA (Gibco), seeded into 24-multiwell plates (Nunc, Rosklide, Denmark) at a density of […] per well, and allowed to attach overnight. Prior to acute test, cells were preincubated for 40 min at 37° C. in a 1.0 ml Krebs Ringer bicarbonate buffer (115 mM NaCl, 4.7 mM KCl, 1.28 MM CaCl2, 1.2 MM KH2PO4, 1.2 mM MgSO4, 10 mM NaHCO3, 5 g/l bovine serum albumin, pH 7.4) supplemented with 1.1 mM glucose. Test incubations were performed for 20 min at 37° C. using the same buffer supplemented with 5.6 mM glucose in the absence (control) and presence of various venom fractions, peaks (equivalent to approx. 25 μl dried HPLC fraction) or test agents as indicated in the Figures. Cell viability after 20 min test incubations was assessed by modified neutral red assay [Hunt S M, Chrzanowska C, Barnnett C R, Brand H N and Fawell J K 1987 A comparison of in vitro cytotoxicity assays and their application to water samples. Alternatives to Laboratory Animals 15 20-29]. After incubation, aliquots of buffer were removed and stored at −20° C. for insulin radiomnimmunoassay [Flatt P R. and Bailey C J 1981 Abnormal plasma glucose and insulin responses in heterozygous lean (ob/+) mice. Diabetologia 20 573-577].

[2] = system: BRIN-BD11 cells; experiment: Acute insulin release from BRIN-BD11 cells cultured overnight with forskolin, PMA or pertussis toxin; format: cell-based, rat; settings: acute test at 5.6 mM glucose; for Stimulatory effect on insulin secretion in cells cultured overnight with PMA: 10 nM PMA overnight (protein kinase C pathway); for Stimulatory effect on insulin secretion in cells cultured overnight with pertussis toxin: 0.1 μg/ml pertussis toxin overnight (G-protein pathway); for Stimulatory effect on insulin secretion in cells cultured overnight with forskolin: 25 μM forskolin overnight (desensitised cyclic AMP-protein kinase A pathway)
Description: FIG. 8 illustrates the dependence of the stimulatory effects of 1653.2 Da purified peptide (peak 1.10) from Agalychnis calcarifer on intracellular pathways mediated by protein kinase A (forskolin), protein kinase C (PMA) or pertussis toxin-sensitive G-proteins. Legend: Acute effects of the 13 amino acid 1653.2 Da purified peptide (peak 1.10) from Agalychnis calcarifer on forskolin and PMA on insulin secretion from BRIN-BD11 cells cultured overnight in the absence (control) and presence of 25 μM forskolin, 10 nM PMA or 0.1 μg/ml pertussis toxin. Acute incubations were performed at 5.6 mM glucose. Values are the mean ±SEM for 8 separate observations. ***P<0.001 compared with 5.6 mM glucose alone under same culture conditions. ^ΔΔΔp<0.001 compared with respective test reagent following control culture.
FIG. 9 illustrates the dependence of the stimulatory effects of 1641.7 Da, 1662.6 Da, 1619.8 Da and 1650.5 Da purified peptides (peaks 21, 22, 23 and 24) from Bombina variegata on intracellular pathways mediated by protein kinase A (forskolin), protein kinase C (PMA) or pertussis toxin-sensitive G-proteins. Legend: Acute effects of 1641.7, 1662.6, 1619.8 and 1650.5 Da purified peptides (peaks 21, 22, 23 and 24) from Bombina variegata on forskolin and PMA on insulin secretion from BRIN-BD11 cells cultured overnight in the absence (control) and presence of 25 μM forskolin, 10 nM PMA or 0.1 μg/ml pertussis toxin. Acute incubations were performed at 5.6 mM glucose. Values are the mean ±SEM for 8 separate observations. **P<0.001 compared with 5.6 mM glucose alone under same culture conditions. ^ΔP<0.001 compared with respective test reagent following control culture.
FIG. 10 illustrates the dependence of the stimulatory effects of 4920.4 Da and 4801.2 Da purified peptides (peaks 5.1 and 5.4) from Rana saharica on intracellular pathways mediated by protein kinase A (forskolin), protein kinase C (PMA) or pertussis toxin-sensitive G-proteins. Legend: Acute effects of 4920.4 and 4801.2 Da purified peptides (peaks 5.1 and 5.4) from Rana saharica on forskolin and PMA on insulin secretion from BRIN-BD11 cells cultured overnight in the absence (control) and presence of 25 μM forskolin, 10 nM PMA or […] pertussis toxin. Acute incubations were performed at 5.6 mM glucose. Values are the mean ±SEM for 8 separate observations. ***P<0.001 compared with 5.6 mM glucose alone under same culture conditions. ^ΔΔP<0.001 compared with respective test reagent following control culture.
as §1
Acute insulin release studies: Insulin release from BRIN-BD11 cells was determined using cell monolayers [McClenaghan N H, Barnett C R, Ah-Sing E, Abdel-Wahab Y H, O'Harte F P, Yoon T W, Swanston-Flatt S K and Flatt P R 1996 Characterization of a novel glucose-responsive insulin-secreting cell line, BRIN-BD11, produced by electrofusion. Diabetes 45 1132-1140]. The cells were harvested with the aid of trypsin/EDTA (Gibco), seeded into 24-multiwell plates (Nunc, Rosklide, Denmark) at a density of […] per well, and allowed to attach overnight. […]

[3] = peptides from Phyllomedusa trinitatis, 5.6 mM glucose, no-peptide control 1.47 ± 0.04
[4] = peptides from Rana saharica, 5.6 mM glucose, mean ± SEM, 3 observations, no-peptide control 1.87 ± 0.06
[5] = peptides from Agalychnis litodryas, 5.6 mM glucose, mean ± SEM, 3 observations, no-peptide control 1.95 ± 0.16
[6] = Table 10, no addition, 5.6 mM glucose, control 1.69 ± 0.17
[7] = Table 10, peptide plus KCl (30 mM), 5.6 mM glucose
[8] = Table 10, peptide plus verapamil (50 μM), 5.6 mM glucose

## [Cl-].[K+] [KCl, reference compound]
[1]; Table 8, 5.6 mM glucose
  Insulin secretion (ng/10^6 cells/20 min), Control: 5.32 ± 0.38 ΔΔΔ ng/10^6 cells/20 min
[1]; Table 9, 5.6 mM glucose
  Insulin secretion (ng/10^6 cells/20 min), Control: 5.33 ± 0.38ΔΔΔ ng/10^6 cells/20 min
[1]; Table 10, 5.6 mM glucose
  Insulin secretion (ng/10^6 cells/20 min), Control: 5.33 ng/10^6 cells/20 min

## CCCCCCCCCCCCCC(=O)O[C@@H]1[C@@H](C)[C@@]2(O)[C@@H](C=C(CO)C[C@]3(O)C(=O)C(C)=C[C@@H]23)[C@@H]2C(C)(C)[C@]12OC(C)=O [PMA, reference compound]
[2]
  Stimulatory effect on insulin secretion in cells cultured overnight with PMA: abolition

## ALSILRGLEKLAKMGIALTNCKATKKC [Peptide 3.8, 2873.5 Da peptide from Rana palustris, 46% ID to Brevinin-1]
[1]; peptides from Rana palustris, 5.6 mM glucose, no-peptide control 1.467 ± 0.04
  Insulin release (ng/10^6 cells/20 mins): 2.48 ± 0.44 ng/10^6 cells/20 mins

## ALWKDILKNVGKAAGKAVLNTVTDMVNQ [Peptide 2.10, peptide from Phyllomedusa trinitatis, 100% ID to Dermaseptin B IV precursor]
[1]; [3]
  Insulin release (ng/10^6 cells/20 mins): 2.356 ± 0.34 ng/10^6 cells/20 mins

## AVITGACERDVQCGGGTCCAVSLI . . . [Peptide 4.23]
[1]; [4]
  Insulin release (ng/10^6 cells/20 mins): 4.25 ± 0.17 ng/10^6 cells/20 mins

## AVWKDFLKNIGKAAGKAVLNSVTDMVNE [Peptide 2.9, 3020.0 Da peptide from Agalychnis litodryas, 79% ID to Dermaseptin B IV precursor]
[1]; [5]
  Insulin release (ng/10^6 cells/20 mins): 7.46 ± 0.08 ng/10^6 cells/20 mins

## FLPIIAGVAAKVFPKIFCAISKKC [Peptide 4.1, peptide from Rana pipiens identical to pipinin-1]
[1]; peptides from Rana pipiens, 5.6 mM glucose, mean ± SEM, 3 observations, no-peptide control 2.76 ± 0.13
  Insulin release (ng/10^6 cells/20 mins): 4.15 ± 0.01 ng/10^6 cells/20 mins

## FLPLLAGLAANFLPKIFCKITRKC [Peptide 8.3, peptide from Rana saharica matching Brevinin-1E]
[1]; [4]
  Insulin release (ng/10^6 cells/20 mins): 3.53 ± 0.06 ng/10^6 cells/20 mins

## GIFSKFGRKKIKNLLISGLKNVGKEVGMDVVRTGIDIAGCKIKGEC [Peptide 5.1, peptide from Rana saharica, 98% ID to Esculentin-1]
[1]
  Insulin-releasing action in the presence of verapamil (in words): not inhibited
  Insulin-releasing action in cells depolarised with KCl (in words): clearly evident
[1]; [6]
  Insulin secretion (ng/10^6 cells/20 min): 2.96 ± 0.32 ng/10^6 cells/20 min
[1]; [7]
  Insulin secretion (ng/10^6 cells/20 min): 10.11 ± 0.81ΔΔΔ*** ng/10^6 cells/20 min
[1]; [8]
  Insulin secretion (ng/10^6 cells/20 min): 2.88 ± 0.28 ng/10^6 cells/20 min
[1]; [4]
  Insulin release (ng/10^6 cells/20 mins): 3.32 ± 0.22 ng/10^6 cells/20 mins
[2]
  Stimulatory effect on insulin secretion in cells cultured overnight with PMA: abolished
  Stimulatory effect on insulin secretion in cells cultured overnight with pertussis toxin: abolished
  Stimulatory effect on insulin secretion in cells cultured overnight with forskolin: abolished

## GIFSKLAGKKLKNLLISGLKNVGKEVGMDVVRTGIDIAGCKIKGEC [Peptide 5.4, peptide from Rana saharica matching Esculentin-1B]
[1]
  Insulin-releasing action in the presence of verapamil (in words): not inhibited
  Insulin-releasing action in cells depolarised with KCl (in words): clearly evident
[1]; [6]
  Insulin secretion (ng/10^6 cells/20 min): 2.89 ± 0.19 ng/10^6 cells/20 min
[1]; [7]
  Insulin secretion (ng/10^6 cells/20 min): 11.84 ± 0.98ΔΔΔ*** ng/10^6 cells/20 min
[1]; [8]
  Insulin secretion (ng/10^6 cells/20 min): 2.79 ± 0.10 ng/10^6 cells/20 min
[1]; [4]
  Insulin release (ng/10^6 cells/20 mins): 3.30 ± 0.22 ng/10^6 cells/20 mins
[2]
  Stimulatory effect on insulin secretion in cells cultured overnight with PMA: abolished
  Stimulatory effect on insulin secretion in cells cultured overnight with pertussis toxin: abolished
  Stimulatory effect on insulin secretion in cells cultured overnight with forskolin: abolished

## GILLDKLKNFAKTAGKGVLQSLLNTASCKLSGQC [Peptide 6.5, peptide from Rana saharica matching Brevinin-2EC]
[1]; [4]
  Insulin release (ng/10^6 cells/20 mins): 5.93 ± 0.47 ng/10^6 cells/20 mins

## GILSTIKDFAIKAGKGAAKGLLEMASCKLSGQC [Peptide 5.6, 3309.2 Da peptide from Rana saharica, 67% ID to Brevinin-2EB]
[1]; [4]
  Insulin release (ng/10^6 cells/20 mins): 2.86 ± 0.37 ng/10^6 cells/20 mins

## GKPFYPPPIYPEDM [Peptide 24, peptide from Bombina variegata, 57% ID to tryptophyllin]
[1]
  Insulin release (ng/10^6 cells/20 mins): 4.30 ± 0.20 ng/10^6 cells/20 mins
  Insulin-releasing action in the presence of verapamil (in words): not affected
  Insulin-releasing action in cells depolarised with KCl (in words): clearly evident
[1]; Table 9, no addition, 5.6 mM glucose, control 1.69 ± 0.17
  Insulin secretion (ng/10^6 cells/20 min): 3.31 ± 0.20 ng/10^6 cells/20 min
[1]; Table 9, peptide plus KCl (30 mM), 5.6 mM glucose
  Insulin secretion (ng/10^6 cells/20 min): 15.35 ± 0.41ΔΔΔ*** ng/10^6 cells/20 min
[1]; Table 9, peptide plus verapamil (50 μM), 5.6 mM glucose
  Insulin secretion (ng/10^6 cells/20 min): 3.08 ± 0.29 ng/10^6 cells/20 min
[2]
  Stimulatory effect on insulin secretion in cells cultured overnight with PMA: did not affect
  Stimulatory effect on insulin secretion in cells cultured overnight with pertussis toxin: did not affect
  Stimulatory effect on insulin secretion in cells cultured overnight with forskolin: abolished

## IYNAICPCKHCNKCKPGLLAN [Peptide 25, 2300.0 Da peptide from Bombina variegata, no database match]
[1]
  Insulin release (ng/10^6 cells/20 mins): 2.39 ± 0.30 ng/10^6 cells/20 mins

## KGAAKGLLEVASCKLSKSC [Peptide 4.22, 1892.6 Da peptide from Rana saharica, 68.4% ID to Rugosin A]
[1]; [4]
  Insulin release (ng/10^6 cells/20 mins): 3.47 ± 0.40 ng/10^6 cells/20 mins

## MLADVFEKIMGD . . . [Peptide 1.7]
[1]; [5]
  Insulin release (ng/10^6 cells/20 mins): 4.22 ± 0.48 ng/10^6 cells/20 mins

## XXPLAPFFQAVFK . . . [Peptide 1.8]
[1]; [3]
  Insulin release (ng/10^6 cells/20 mins): 2.48 ± 0.37 ng/10^6 cells/20 mins
